Data reported in patent publication USRE47785E1, “7-{(3S,4S)-3-[(cyclopropylamino)methyl]-4-fluoropyrrolidine-1-yl}-6-fluoro-1-(2-fluoroethyl)-8-methoxy-4-oxo-1,4-dihydroquinoline-3-carboxylic acid crystal” (KYORIN PHARMACEUTICAL CO., LTD., priority 2011, dated 2019).
Read-outs that look alike come from different tables or passages of the source.

Columns and labels:
[1] = Storage stability test (40° C., 75% RH, open or closed, opaque containers, HPLC); details: for amount of remaining unaltered crystals, INITIAL: 40° C./75% RH storage test
Text: HPLC conditions: a column, which is Inertsil ODS-3V manufactured by GL Sciences Inc., and has an inner diameter of 4.6 mm, a length of 15 cm, and a particle diameter of […] was used. […] The measurement wavelength used was 294 nm.

[2] = Test of storage stability against light (D65 fluorescent lamp irradiation)
[3] = Test of solubility in water

**Q.** For COc1c(N2C[C@H](CNC3CC3)[C@H](F)C2)c(F)cc2c(=O)c(C(=O)O)cn(CCF)c12.CS(=O)(=O)O (hydrate or solvate) [CRYSTALS OF METHANESULFONATE SALT, 7-{(3S,4S)-3-[(cyclopropylamino)methyl]-4-fluoropyrrolidine-1-yl}-6-fluoro-1-(2-fluoroethyl)-8-methoxy-4-oxo-1,4-dihydroquinoline-3-carboxylic Acid Methanesulfonate Salt], which melting point is on record?
**A.** The melting point was 207 to 210 °C (dec.).

**Q.** Which “amount of remaining unaltered crystals, INITIAL” value [1] does the source give for COc1c(N2C[C@H](CNC3CC3)[C@H](F)C2)c(F)cc2c(=O)c(C(=O)O)cn(CCF)c12.Cl [CRYSTALS A, 7-{(3S,4S)-3-[(cyclopropylamino)methyl]-4-fluoropyrrolidine-1-yl}-6-fluoro-1-(2-fluoroethyl)-8-methoxy-4-oxo-1,4-dihydroquinoline-3-carboxylic Acid Hydrochloride Salt (Crystals A)] here?
**A.** The value was 99.52.

**Q.** What about the “change in the amount of unaltered crystals at 4 weeks (in words)” value (from here on “change in the amount … at 4 weeks (in words)”) ([1]; 40° C./75% RH) of the same molecule?
**A.** Its value is “no change”.

**Q.** And the “amount of remaining unaltered crystals, 4 WEEKS CLOSED CONDITION” value ([1]; 40° C./75% RH)?
**A.** Its value is 99.52.

**Q.** And the “amount of remaining unaltered crystals, 4 WEEKS OPEN CONDITION” value ([1]; 40° C./75% RH)?
**A.** Its value is 99.51.

**Q.** What about the “amount of remaining unaltered crystals, total irradiation amount 110,000 lx·hrs” value [2] of the same molecule?
**A.** Its value is 97.74.

**Q.** What about the “change in the amount of unaltered crystals at 110,000 lx·hrs (in words)” value [2] of the same molecule?
**A.** The value was “almost no change”.

**Q.** What about the “amount of remaining unaltered crystals, total irradiation amount 220,000 lx·hrs” value [2] of the same molecule?
**A.** The value was 97.43.

**Q.** What about the “amount of remaining unaltered crystals, total irradiation amount 530,000 lx·hrs” value [2] of the same molecule?
**A.** Its value is 97.32.

**Q.** What about the “amount of remaining unaltered crystals, total irradiation amount 860,000 lx·hrs” value [2] of the same molecule?
**A.** Its value is 96.32.

**Q.** And the “amount of remaining unaltered crystals, total irradiation amount 1,280,000 lx·hrs” value ([2]; 1,280,000 lx·hrs)?
**A.** The value was 91.33.

**Q.** And the “change in the amount of crystals at 1,280,000 lx·hrs (in words)” value ([2]; 1,280,000 lx·hrs)?
**A.** The value was “found to decrease”.

**Q.** And the “amount of remaining unaltered crystals, INITIAL” value [2]?
**A.** Its value is 98.68.

**Q.** What about the SOLUBILITY [3] of the same molecule?
**A.** The SOLUBILITY was over 10 mg/mL.

**Q.** Which “amount of remaining unaltered crystals, INITIAL” value [1] does the source give for COc1c(N2C[C@H](CNC3CC3)[C@H](F)C2)c(F)cc2c(=O)c(C(=O)O)cn(CCF)c12.Cl.O [CRYSTALS B, 7-{(3S,4S)-3-[(cyclopropylamino)methyl]-4-fluoropyrrolidine-1-yl}-6-fluoro-1-(2-fluoroethyl)-8-methoxy-4-oxo-1,4-dihydroquinoline-3-carboxylic Acid Hydrochloride Salt Hydrate (Crystals B)] here?
**A.** Its value is 99.59.

**Q.** And the “change in the amount … at 4 weeks (in words)” value ([1]; 40° C./75% RH)?
**A.** The value was “no change”.

**Q.** And the “amount of remaining unaltered crystals, 4 WEEKS CLOSED CONDITION” value ([1]; 40° C./75% RH)?
**A.** The value was 99.65.

**Q.** What about the “amount of remaining unaltered crystals, 4 WEEKS OPEN CONDITION” value ([1]; 40° C./75% RH) of the same molecule?
**A.** Its value is 99.64.

**Q.** What about the SOLUBILITY [3] of the same molecule?
**A.** The SOLUBILITY was over 10 mg/mL.

**Q.** With COc1c(N2C[C@H](CNC3CC3)[C@H](F)C2)c(F)cc2c(=O)c(C(=O)O)cn(CCF)c12.Cl.O [CRYSTALS C, 7-{(3S,4S)-3-[(cyclopropylamino)methyl]-4-fluoropyrrolidine-1-yl}-6-fluoro-1-(2-fluoroethyl)-8-methoxy-4-oxo-1,4-dihydroquinoline-3-carboxylic Acid Hydrochloride Salt Hydrate (Crystals C)] as the molecule, how does the “amount of remaining unaltered crystals, INITIAL” value [1] read?
**A.** The value was 99.75.

**Q.** What about the “change in the amount of unaltered crystals at 2 weeks (in words)” value ([1]; 40° C./75% RH, 2 weeks) of the same molecule?
**A.** Its value is “found to decrease”.

**Q.** And the “amount of remaining unaltered crystals, 2 WEEKS CLOSED CONDITION” value ([1]; 40° C./75% RH, 2 weeks)?
**A.** The value was 99.37.

**Q.** What about the “amount of remaining unaltered crystals, 2 WEEKS OPEN CONDITION” value ([1]; 40° C./75% RH, 2 weeks) of the same molecule?
**A.** Its value is 99.47.

**Q.** With COc1c(N2C[C@H](CNC3CC3)[C@H](F)C2)c(F)cc2c(=O)c(C(=O)O)cn(CCF)c12.CS(=O)(=O)O [CRYSTALS OF METHANESULFONATE SALT, 7-{(3S,4S)-3-[(cyclopropylamino)methyl]-4-fluoropyrrolidine-1-yl}-6-fluoro-1-(2-fluoroethyl)-8-methoxy-4-oxo-1,4-dihydroquinoline-3-carboxylic Acid Methanesulfonate Salt] as the molecule, how does the “amount of remaining unaltered crystals, INITIAL” value [1] read?
**A.** Its value is 95.18.

**Q.** And the “change in the amount … at 4 weeks (in words)” value ([1]; 40° C./75% RH)?
**A.** Its value is “no change”.

**Q.** And the “amount of remaining unaltered crystals, 4 WEEKS CLOSED CONDITION” value ([1]; 40° C./75% RH)?
**A.** The value was 96.09.

**Q.** What about the “amount of remaining unaltered crystals, 4 WEEKS OPEN CONDITION” value ([1]; 40° C./75% RH) of the same molecule?
**A.** The value was 95.89.

**Q.** And the “amount of remaining unaltered crystals, total irradiation amount 110,000 lx·hrs” value [2]?
**A.** Its value is 98.01.

**Q.** And the “change in the amount of unaltered crystals at 110,000 lx·hrs (in words)” value [2]?
**A.** Its value is “almost no change”.

**Q.** And the “amount of remaining unaltered crystals, total irradiation amount 220,000 lx·hrs” value [2]?
**A.** Its value is 97.5.

**Q.** What about the “amount of remaining unaltered crystals, total irradiation amount 530,000 lx·hrs” value [2] of the same molecule?
**A.** Its value is 96.91.

**Q.** And the “amount of remaining unaltered crystals, total irradiation amount 860,000 lx·hrs” value [2]?
**A.** The value was 95.37.

**Q.** And the “amount of remaining unaltered crystals, total irradiation amount 1,280,000 lx·hrs” value ([2]; 1,280,000 lx·hrs)?
**A.** The value was 95.11.

**Q.** And the “change in the amount of crystals at 1,280,000 lx·hrs (in words)” value ([2]; 1,280,000 lx·hrs)?
**A.** The value was “found to decrease”.

**Q.** What about the “amount of remaining unaltered crystals, INITIAL” value [2] of the same molecule?
**A.** The value was 98.83.

**Q.** What about the SOLUBILITY ([3]; Methanesulfonate Salt) of the same molecule?
**A.** The SOLUBILITY was over 10 mg/mL.

**Q.** And the SOLUBILITY ([3]; water, SOLUBILITY)?
**A.** Its SOLUBILITY is at least 10 mg/mL.

**Q.** Which results are given for COc1c(N2C[C@H](CNC3CC3)[C@H](F)C2)c(F)cc2c(=O)c(C(=O)O)cn(CCF)c12 [FREE CRYSTALS, 7-{(3S,4S)-3-[(cyclopropylamino)methyl]-4-fluoropyrrolidine-1-yl}-6-fluoro-1-(2-fluoroethyl)-8-methoxy-4-oxo-1,4-dihydroquinoline-3-carboxylic acid]?
**A.** amount of remaining unaltered crystals, INITIAL [1]: 95.18; amount of remaining unaltered crystals, 2 WEEKS CLOSED CONDITION ([1]; 40° C./75% RH, 2 weeks): 95.13; amount of remaining unaltered crystals, 2 WEEKS OPEN CONDITION ([1]; 40° C./75% RH, 2 weeks): 95.27; amount of remaining unaltered crystals, 4 WEEKS CLOSED CONDITION ([1]; 40° C./75% RH): 95.00; amount of remaining unaltered crystals, 4 WEEKS OPEN CONDITION ([1]; 40° C./75% RH): 95.35; amount of remaining unaltered crystals, total irradiation amount 110,000 lx·hrs [2]: 77.71; change in the amount of unaltered crystals at 110,000 lx·hrs (in words) [2]: significantly decrease; amount of remaining unaltered crystals, total irradiation amount 220,000 lx·hrs [2]: 75.31; amount of remaining unaltered crystals, total irradiation amount 530,000 lx·hrs [2]: 66.34; amount of remaining unaltered crystals, total irradiation amount 860,000 lx·hrs [2]: 49.82; amount of remaining unaltered crystals, total irradiation amount 1,280,000 lx·hrs ([2]; 1,280,000 lx·hrs): 44.85; reduction in the amount of crystals at 1,280,000 lx·hrs ([2]; 1,280,000 lx·hrs): ≥ 50%; amount of remaining unaltered crystals, INITIAL [2]: 96.12; SOLUBILITY [3]: <1 mg/mL; SOLUBILITY ([3]; water, SOLUBILITY): ≤ 1 mg/mL
